In US4873253A, “Phenylalanine derivative and proteinase inhibitor” (Okamoto; Shosuke, priority 1987, dated 1989):
Structures can show the parent of a compound that is named as a salt. Where two headings read alike, the source gives them in different places.

Tests used:
human plasmin [1] = molecular target: T1, human plasmin (Homo sapiens, UniProt P00747); assay: Antiplasmin activity: inhibition of fibrin decomposition; format: biochemical; settings: Table 2, pH 7.4, 37° C., read-out: Plasmin Fibrin I50 (concentration doubling fibrin dissolution time)
T1 sequence (P00747 581-810 limits assumed): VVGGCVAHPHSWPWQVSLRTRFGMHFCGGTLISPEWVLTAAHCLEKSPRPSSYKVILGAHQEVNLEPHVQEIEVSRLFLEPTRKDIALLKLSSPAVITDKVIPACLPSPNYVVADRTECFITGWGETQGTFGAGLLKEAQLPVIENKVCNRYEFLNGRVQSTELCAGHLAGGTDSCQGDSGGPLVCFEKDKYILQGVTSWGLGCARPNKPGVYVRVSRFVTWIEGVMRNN
T1 sequence (P00747 97-580 limits assumed): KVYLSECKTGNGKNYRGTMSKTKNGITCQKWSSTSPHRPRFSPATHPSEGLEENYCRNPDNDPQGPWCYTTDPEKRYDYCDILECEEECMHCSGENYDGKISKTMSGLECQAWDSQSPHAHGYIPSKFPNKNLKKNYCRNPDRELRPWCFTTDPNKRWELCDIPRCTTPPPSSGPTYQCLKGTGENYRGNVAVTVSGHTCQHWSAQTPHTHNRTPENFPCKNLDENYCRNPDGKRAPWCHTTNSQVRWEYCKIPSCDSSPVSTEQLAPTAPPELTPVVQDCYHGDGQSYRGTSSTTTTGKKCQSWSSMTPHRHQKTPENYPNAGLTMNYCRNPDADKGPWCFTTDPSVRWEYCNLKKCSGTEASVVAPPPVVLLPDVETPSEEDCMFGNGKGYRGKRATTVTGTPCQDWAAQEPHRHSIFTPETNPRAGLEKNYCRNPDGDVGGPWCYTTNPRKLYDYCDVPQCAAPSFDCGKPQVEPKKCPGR
Experimental: (i) Determination of inhibition activity for fibrin decomposition
An inhibitor sample is dissolved in a 0.18 M borate-physiological salt buffer solution (pH=7.4) to make the total volume to 600 μl. To this buffer solution, 200 μl of a 0.2% bovine fibrinogen, 100 μl of a 0.3 casein unit/ml human plasmin solution, and 100 μl of a 50 unit/ml bovine thrombin solution, all dissolved in the above-mentioned buffer, are added at a temperature of 37° C. in a constant temperature bath. Then, the dissolution time of the fibrin mass formed above is determined.

human urokinase = human urokinase (Homo sapiens, UniProt P00749); assay: biochemical; settings: Table 2; substrate S-2444, pH 8.8, 37° C.; read-out: Urokinase S-2444 I50
Experimental: Determination of inhibition activity for S-2444 decomposition
(§1) An inhibitor sample is dissolved in a 0.05 M Tris-hydrochloric acid buffer solution (pH=8.8) to make the total volume to 400 μl. To this solution, 50 μl of a 1 mM S-2444 solution is added and the mixture is incubated at a temperature of 37° C. for 5 minutes in a constant temperature bath. Then, 50 μl of a 500 unit/ml human urokinase is added and the mixture is incubated at a temperature of 37° C. for 5 minutes. Thereafter, 50 μl of 50% acetic acid is added to terminate the reaction. The absorbance of the p-nitroaniline formed in the reaction mixture is measured at 405 nm. Thus, the concentration I50 (μmol) of the inhibitor sample, at which the absorbance is one half (i.e., 1/2) of that obtained in the absence of the inhibitor sample, is determined.

bovine thrombin = molecular target: T2, bovine thrombin (Bos taurus, UniProt P00735); assay: Antithrombin activity: inhibition of fibrin formation (fibrinogen); format: biochemical
T2 construct: a 0.2 unit/ml bovine thrombin solution
Experimental: (i) Determination of inhibition activity against fibrin formation
An inhibitor sample is dissolved in a 0.18 M borate-physiological salt buffer solution (pH= 7.4) to make the total volume to 500 μl. […] Thus, a coagulation time is determined. The inhibitor concentration I50 (μmol), at which the coagulation time obtained in the absence of the inhibitor is extended twice, is determined.

human plasmin [2] = molecular target: T1, human plasmin; assay: Antiplasmin activity: inhibition of S-2251 decomposition; format: biochemical; settings: Table 2; substrate S-2251, pH 7.4, 37° C.
Experimental: An inhibitor sample is dissolved in a 0.05 M Tris-hydrochloric acid buffer solution (pH=7.4) to make the total volume to 400 μl. […] Then, 50 μl of a 0.2 casein unit/ml human plasmin is added and the mixture is incubated at a temperature of 37° C. for 4 minutes. Thereafter, the reaction is stopped by adding 50 μl of 50% acetic acid.
Thus, the concentration I50 (μmol) of the inhibitor sample, at which the absorbance is one half (i.e., 1/2) of that obtained in the absence of the inhibitor, is determined.

bovine trypsin = molecular target: T3, bovine trypsin (Bos taurus, UniProt P00760); assay: Antitrypsin activity: inhibition of S-2238 decomposition; format: biochemical; settings: Table 2; substrate S-2238, pH 8.1, 37° C.; read-out: Trypsin S-2238 I50
T3 sequence (P00760 24-246): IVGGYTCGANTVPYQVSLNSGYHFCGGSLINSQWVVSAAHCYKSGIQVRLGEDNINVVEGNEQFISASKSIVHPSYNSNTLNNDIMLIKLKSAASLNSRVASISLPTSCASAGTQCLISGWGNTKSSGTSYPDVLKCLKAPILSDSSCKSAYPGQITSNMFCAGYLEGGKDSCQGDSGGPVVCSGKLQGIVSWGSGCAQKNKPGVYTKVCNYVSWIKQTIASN
Experimental: Determination of inhibition activity against S-2238 decomposition
An inhibitor sample is dissolved in a 0.05 M Tris-imidazole buffer solution (pH=8.1) and 125 μl of a 1 mM S-2238 solution is added to make the total volume to 1.20 ml. The mixture is incubated at a temperature of 37° C. for 5 minutes in a constant temperature bath. To this mixture, 0.05 ml of bovine trypsin is added and the absorbance, at 405 nm, of the p-nitroaniline formed per minute is determined at a temperature of 37° C. by using the so-called initial velocity method. Thus, the concentration I50 (μmol) of a inhibitor sample, at which the absorbance is one half (i.e., 1/2) of that obtained in the absence of the inhibitor sample, is determined.

human plasma kallikrein = human plasma kallikrein (Homo sapiens, UniProt P03952); assay: Anti-plasma kallikrein activity: inhibition of S-2302 decomposition; format: biochemical; settings: Table 2; substrate S-2302, pH 7.8, 37° C.; read-out: Plasma Kallikrein S-2302 I50
human plasma kallikrein, sequence (P03952 391-638 limits assumed): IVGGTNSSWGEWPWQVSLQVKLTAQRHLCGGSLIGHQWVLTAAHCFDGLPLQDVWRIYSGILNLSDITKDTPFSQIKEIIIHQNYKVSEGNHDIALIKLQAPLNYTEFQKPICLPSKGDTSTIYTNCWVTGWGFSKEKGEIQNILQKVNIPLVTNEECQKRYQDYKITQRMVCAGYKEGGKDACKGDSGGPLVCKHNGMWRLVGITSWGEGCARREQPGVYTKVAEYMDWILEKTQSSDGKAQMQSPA
human plasma kallikrein, sequence (P03952 20-390 limits assumed): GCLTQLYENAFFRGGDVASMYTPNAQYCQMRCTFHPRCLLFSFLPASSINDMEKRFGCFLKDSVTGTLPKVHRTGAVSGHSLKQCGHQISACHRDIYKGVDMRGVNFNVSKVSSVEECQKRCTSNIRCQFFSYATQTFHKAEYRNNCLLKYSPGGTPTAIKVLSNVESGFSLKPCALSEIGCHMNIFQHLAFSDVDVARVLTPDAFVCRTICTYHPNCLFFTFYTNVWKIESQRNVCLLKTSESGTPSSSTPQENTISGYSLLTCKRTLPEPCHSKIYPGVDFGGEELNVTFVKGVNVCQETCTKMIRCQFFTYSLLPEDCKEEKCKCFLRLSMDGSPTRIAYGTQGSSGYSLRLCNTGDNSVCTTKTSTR
Experimental: Determination of inhibition activity for S-2302 decomposition
as §1, with “solution (pH=7.8)” for “solution (pH=8.8)”, “a 2” for “a 1”, “mM S-2302” for “mM S-2444”, “a 0.12” for “a 500”, “human plasma kallikrein” for “human urokinase”

[3] = Table 2, bovine fibrinogen, pH 7.4, 37° C., read-out: Thrombin Fibrinogen I50 (concentration doubling coagulation time)

SMILES	IC50 (human plasmin [1])	IC50 (human urokinase)	IC50 (bovine thrombin; [3])	IC50 (human plasmin [2])	IC50 (bovine trypsin)	IC50 (human plasma kallikrein)	IC50 (bovine thrombin)
N=C(N)c1ccc(NC(=O)C(Cc2cccc(Oc3ccccc3)c2)NC(=O)[C@H]2CC[C@H](CN)CC2)cc1 (mixture of isomers) [Compound 5, N-(trans-4-aminomethylcyclohexylcarbonyl)-3-phenoxy-DL-phenylalanine-4-amidinoanilide dihydrochloride]	12 µM	38 µM	> 100 µM	22 µM	2.5 µM	8.7 µM	–
NC[C@H]1CC[C@H](C(=O)NC(Cc2cccc(Oc3ccccc3)c2)C(=O)Nc2ncccc2C(=O)O)CC1 (mixture of isomers) [Compound 10, N-(trans-4-aminomethylcyclohexylcarbonyl)-3-phenoxy-DL-phenylalanine 2-nicotinylamide dihydrobromide]	–	> 250 µM	> 125 µM	–	> 150 µM	> 250 µM	–
CCOC(=O)c1ccccc1NC(=O)C(Cc1cccc(Oc2ccccc2)c1)NC(=O)[C@H]1CC[C@H](CN)CC1 (mixture of isomers) [Compound 4, N-(trans-4-aminomethylcyclohexylcarbonyl)-3-phenoxy-DL-phenylalanine 2-ethoxycarbonylanilide hydrochloride]	–	> 200 µM	–	> 100 µM	> 150 µM	> 100 µM	> 50 µM
NC[C@H]1CC[C@H](C(=O)NC(Cc2cccc(OCc3ccccc3)c2)C(=O)Nc2cccnc2)CC1 (mixture of isomers) [Compound 22, N-(trans-4-aminomethylcyclohexylcarbonyl)-3-benzyloxy-DL-phenylalanine 3-pyridylamide dihydrochloride]	> 500 µM	–	> 500 µM	> 1000 µM	> 150 µM	> 500 µM	–
CC(=O)c1ccc(NC(=O)C(Cc2cccc(Oc3ccccc3)c2)NC(=O)[C@H]2CC[C@H](CNC(=N)N)CC2)cc1 (mixture of isomers) [Compound 30, N-(trans-4-guanidinomethylcyclohexylcarbonyl)-3-phenoxy-DL-phenylalanine 4-acetylanilide methane sulfonate]	> 50 µM	–	–	> 20 µM	> 150 µM	> 10 µM	–
CCOC(=O)C1CCN(C(=O)C(Cc2cccc(Oc3ccccc3)c2)NC(=O)c2ccc(NC(=N)N)cc2)CC1 (racemic) [Compound 34, N-(4-guanidinobenzoyl)-3-phenoxy-DL-phenylalanine 4-ethoxycarbonyl piperidinoamide methane sulfonate]	–	> 200 µM	> 50 µM	–	> 150 µM	270 µM	–
N=C(N)Nc1ccc(C(=O)NC(Cc2cccc(Oc3ccccc3)c2)C(=O)N2CCC(C(=O)O)CC2)cc1 (racemic) [Compound 35, N-(4-guanidinobenzoyl)-3-phenoxy-DL-phenylalanine 4-hydroxycarbonyl piperidinoamide methane sulfonate]	> 200 µM	–	–	> 500 µM	240 µM	> 500 µM	–
N=C(N)Nc1ccc(C(=O)NC(Cc2cccc(Oc3ccccc3)c2)C(=O)Nc2ccc(CC(=O)O)cc2)cc1 (racemic) [Compound 36, N-(4-guanidinobenzoyl)-3-phenoxy-DL-phenylalanine 4-hydroxycarbonylmethylanilide hydrochloride]	> 25 µM	–	–	25 µM	17 µM	1.9 µM	–
NC[C@H]1CC[C@H](C(=O)NC(Cc2cccc(Oc3ccccc3)c2)C(=O)Nc2cccnc2)CC1 (stereo partly drawn) [Compound 7]	–	–	> 1000 µM	–	15 µM	2 µM	–
NC[C@H]1CC[C@H](C(=O)NC(Cc2cccc(Oc3ccccc3)c2)C(=O)Nc2ncc[nH]2)CC1 (stereo partly drawn) [Compound 11]	220 µM	> 400 µM	–	610 µM	68 µM	190 µM	–
NC[C@H]1CC[C@H](C(=O)NC(Cc2cccc(Oc3ccccc3)c2)C(=O)Nc2nnn[nH]2)CC1 (stereo partly drawn) [Compound 13]	–	> 200 µM	> 100 µM	–	> 150 µM	> 200 µM	–
